According to the NIST ThermoML archive (doi:10.1021/je030136n):

Columns and labels:
[1] = Liquid, Pulse-echo method
[2] = xn = mol fraction of the nth substance listed; conditions: Liquid, Pulse-echo method, x1 = 1

CCCCCCC [heptane]
[1]
Conditions	speed of sound [m/s]
293.1 K, 111450 kPa	1674.3
293.15 K, 100 kPa	1151.7
293.16 K, 121580 kPa	1707.1
293.18 K, 30400 kPa	1341.5
293.19 K, 45590 kPa	1416.6
293.2 K, 15200 kPa	1256.3
293.2 K, 60790 kPa	1484.5
293.2 K, 75990 kPa	1546.5
293.2 K, 91190 kPa	1603.7
293.2 K, 101320 kPa	1639.7
298.11 K, 75990 kPa	1531.6
298.13 K, 111450 kPa	1660.5
298.14 K, 121580 kPa	1692.4
298.15 K, 91190 kPa	1589.4
298.16 K, 100 kPa	1129.9
298.16 K, 101320 kPa	1625.7
298.16 K, 111450 kPa	1660.4
298.18 K, 45590 kPa	1400.1
298.19 K, 60790 kPa	1468.7
303.06 K, 100 kPa	1108.9
303.07 K, 45590 kPa	1384.4
303.1 K, 101320 kPa	1612.6
303.1 K, 121580 kPa	1681.2
303.13 K, 30400 kPa	1307
303.15 K, 111450 kPa	1647.6
303.17 K, 15200 kPa	1218.6
303.17 K, 75990 kPa	1517.2
303.18 K, 60790 kPa	1453.7
303.18 K, 91190 kPa	1575.7
308.07 K, 30400 kPa	1290.3
308.07 K, 45590 kPa	1368.7
308.08 K, 100 kPa	1087.4
308.08 K, 15200 kPa	1200.4
308.11 K, 91190 kPa	1562.4
308.12 K, 60790 kPa	1439
308.12 K, 75990 kPa	1503.2
308.17 K, 121580 kPa	1668.6
308.21 K, 111450 kPa	1634.6
308.24 K, 101320 kPa	1599.1
313.1 K, 100 kPa	1066.1
313.1 K, 15200 kPa	1182
313.1 K, 75990 kPa	1489.2
313.12 K, 30400 kPa	1273.3
313.12 K, 45590 kPa	1353
313.12 K, 60790 kPa	1424.3
313.13 K, 91190 kPa	1549
313.13 K, 121580 kPa	1656.4
313.2 K, 111450 kPa	1622
313.21 K, 101320 kPa	1586.2
318.09 K, 75990 kPa	1475.5
318.15 K, 91190 kPa	1535.7
318.17 K, 45590 kPa	1337.4
318.17 K, 60790 kPa	1409.6
318.17 K, 121580 kPa	1644.3
318.18 K, 100 kPa	1044.5
318.18 K, 15200 kPa	1163.4
318.18 K, 30400 kPa	1256.5
318.18 K, 101320 kPa	1573.6
318.18 K, 111450 kPa	1609.8

CCCO [propan-1-ol]
[1]
Conditions	speed of sound [m/s]
293.12 K, 15200 kPa	1308.5
293.16 K, 121580 kPa	1699.1
293.17 K, 111450 kPa	1669.9
293.18 K, 101320 kPa	1639.5
293.19 K, 100 kPa	1223
293.2 K, 75990 kPa	1557.2
293.2 K, 91190 kPa	1607.6
293.21 K, 45590 kPa	1444.2
293.21 K, 60790 kPa	1502.8
293.22 K, 30400 kPa	1379.9
298.11 K, 15200 kPa	1292.9
298.12 K, 100 kPa	1205.9
298.14 K, 45590 kPa	1430.7
298.14 K, 60790 kPa	1490
298.14 K, 75990 kPa	1544.9
298.14 K, 91190 kPa	1595.8
298.14 K, 101320 kPa	1628
298.14 K, 111450 kPa	1658.8
298.14 K, 121580 kPa	1688.2
298.15 K, 30400 kPa	1365.6
303.12 K, 100 kPa	1188.7
303.13 K, 45590 kPa	1417
303.14 K, 15200 kPa	1277.3
303.15 K, 75990 kPa	1532.5
303.17 K, 91190 kPa	1584
303.17 K, 101320 kPa	1616.5
303.18 K, 121580 kPa	1677.4
303.19 K, 111450 kPa	1647.5
303.2 K, 60790 kPa	1477
303.24 K, 30400 kPa	1350.9
308.11 K, 121580 kPa	1667
308.12 K, 75990 kPa	1520.4
308.13 K, 30400 kPa	1336.8
308.13 K, 45590 kPa	1403.7
308.13 K, 60790 kPa	1464.5
308.16 K, 111450 kPa	1636.7
308.19 K, 101320 kPa	1605.1
308.2 K, 100 kPa	1171.4
308.2 K, 15200 kPa	1263.6
308.2 K, 91190 kPa	1572.4
313.15 K, 91190 kPa	1561.1
313.15 K, 101320 kPa	1594.1
313.16 K, 15200 kPa	1248.7
313.16 K, 30400 kPa	1322.6
313.16 K, 45590 kPa	1390.4
313.16 K, 75990 kPa	1508.5
313.17 K, 100 kPa	1154.5
313.17 K, 60790 kPa	1451.8
313.17 K, 121580 kPa	1656.2
313.22 K, 111450 kPa	1625.8
318.11 K, 101320 kPa	1583.3
318.12 K, 60790 kPa	1439.6
318.12 K, 75990 kPa	1496.8
318.12 K, 91190 kPa	1549.9
318.14 K, 45590 kPa	1377.4
318.16 K, 30400 kPa	1308.7
318.17 K, 111450 kPa	1615.3
318.17 K, 121580 kPa	1646
318.2 K, 100 kPa	1137.5

CCCO [propan-1-ol] + CCCCCCC
[2]
Conditions	speed of sound [m/s]
293.12 K, 15200 kPa	1308.5
293.16 K, 121580 kPa	1699.1
293.17 K, 111450 kPa	1669.9
293.18 K, 101320 kPa	1639.5
293.19 K, 100 kPa	1223
293.2 K, 75990 kPa	1557.2
293.2 K, 91190 kPa	1607.6
293.21 K, 45590 kPa	1444.2
293.21 K, 60790 kPa	1502.8
293.22 K, 30400 kPa	1379.9
298.11 K, 15200 kPa	1292.9
298.12 K, 100 kPa	1205.9
298.14 K, 45590 kPa	1430.7
298.14 K, 60790 kPa	1490
298.14 K, 75990 kPa	1544.9
298.14 K, 91190 kPa	1595.8
298.14 K, 101320 kPa	1628
298.14 K, 111450 kPa	1658.8
298.14 K, 121580 kPa	1688.2
298.15 K, 30400 kPa	1365.6
303.12 K, 100 kPa	1188.7
303.13 K, 45590 kPa	1417
303.14 K, 15200 kPa	1277.3
303.15 K, 75990 kPa	1532.5
303.17 K, 91190 kPa	1584
303.17 K, 101320 kPa	1616.5
303.18 K, 121580 kPa	1677.4
303.19 K, 111450 kPa	1647.5
303.2 K, 60790 kPa	1477
303.24 K, 30400 kPa	1350.9
308.11 K, 121580 kPa	1667
308.12 K, 75990 kPa	1520.4
308.13 K, 30400 kPa	1336.8
308.13 K, 45590 kPa	1403.7
308.13 K, 60790 kPa	1464.5
308.16 K, 111450 kPa	1636.7
308.19 K, 101320 kPa	1605.1
308.2 K, 100 kPa	1171.4
308.2 K, 15200 kPa	1263.6
308.2 K, 91190 kPa	1572.4
313.15 K, 91190 kPa	1561.1
313.15 K, 101320 kPa	1594.1
313.16 K, 15200 kPa	1248.7
313.16 K, 30400 kPa	1322.6
313.16 K, 45590 kPa	1390.4
313.16 K, 75990 kPa	1508.5
313.17 K, 100 kPa	1154.5
313.17 K, 60790 kPa	1451.8
313.17 K, 121580 kPa	1656.2
313.22 K, 111450 kPa	1625.8
318.11 K, 101320 kPa	1583.3
318.12 K, 60790 kPa	1439.6
318.12 K, 75990 kPa	1496.8
318.12 K, 91190 kPa	1549.9
318.14 K, 45590 kPa	1377.4
318.16 K, 30400 kPa	1308.7
318.17 K, 111450 kPa	1615.3
318.17 K, 121580 kPa	1646
318.2 K, 100 kPa	1137.5
